The source of these data is US7425640B2, “Substituted 5-carboxyamide pyrazoles and [1,2,4]triazoles as antiviral agents” (priority 2004, dated 2008).

The structures appear in SMILES notation. A value given as a limit tells only on which side of the number the result lay.

The target of the first experiment is HCV RNA-dependent RNA polymerase NS5B (Δ21) (Hepatitis C virus genotype 1b, UniProt P26663). The experiment is described as follows: Assay for HCV RNA-dependent RNA polymerase activity (SPA, [3H]-GTP incorporation). Type of experiment: biochemical. Conditions: read-out: Δ21 Activity (IC50 μM); 50 nM NS5B (Δ21), class symbols. Put shortly: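 NS5B (Δ21), 50 nM, was incubated 3 h at room temperature with biotinylated oligoG12/polyC template, 5 μM GTP plus [3H]-GTP, in HEPES pH 7.3 with MgCl2 and NaCl. [3H]-GTP incorporation was read by streptavidin SPA. IC50 came from single experiments across 11 two-fold dilutions (0.05–50 μM).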
Chain of HCV RNA-dependent RNA polymerase NS5B (Δ21) (P26663 2420-2989, stated change not applied): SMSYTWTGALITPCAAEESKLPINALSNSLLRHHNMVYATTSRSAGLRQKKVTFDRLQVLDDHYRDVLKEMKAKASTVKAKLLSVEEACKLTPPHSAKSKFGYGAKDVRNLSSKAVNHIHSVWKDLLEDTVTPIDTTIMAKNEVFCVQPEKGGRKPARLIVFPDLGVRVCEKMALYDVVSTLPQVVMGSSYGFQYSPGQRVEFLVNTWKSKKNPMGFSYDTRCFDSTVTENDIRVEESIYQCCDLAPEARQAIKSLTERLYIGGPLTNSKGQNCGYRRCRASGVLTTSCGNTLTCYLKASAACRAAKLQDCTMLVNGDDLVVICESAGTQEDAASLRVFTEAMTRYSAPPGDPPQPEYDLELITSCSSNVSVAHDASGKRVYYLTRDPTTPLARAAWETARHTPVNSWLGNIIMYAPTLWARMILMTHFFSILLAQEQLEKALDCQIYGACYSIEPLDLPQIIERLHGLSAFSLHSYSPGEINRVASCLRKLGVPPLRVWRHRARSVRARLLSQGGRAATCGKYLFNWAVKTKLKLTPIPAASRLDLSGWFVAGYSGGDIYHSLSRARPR
On to `COC(CNC(=O)c1cc(C(=O)N[C@H]2CCCC[C@@H]2OCc2ccccc2)n(CC(=O)N[C@H]2CCCC[C@@H]2OCc2ccccc2)n1)OC` [Compound 146], for which the IC50 lay within 0.1 to 1 µM. The same measure, in the same setting: as for `O=C(Cn1nc(C(=O)N2CCN(Cc3ccccc3)CC2)cc1C(=O)N[C@H]1CCCC[C@@H]1OCc1ccccc1)N[C@H]1CCCC[C@@H]1OCc1ccccc1` [Compound 156], the figure is 0.1 to 1 µM. Consider `O=C(Cn1nc(C(=O)N2CCOCC2)cc1C(=O)N[C@H]1CCCC[C@@H]1OCc1ccccc1)N[C@H]1CCCC[C@@H]1OCc1ccccc1` [Compound 150], for which the half-inhibitory concentration (IC50) was in the range of 0.1 to 1 µM.

The experiment is the same for the next values; noted with them: Δ21 Activity (IC50 μM), 50 nM NS5B (Δ21), class symbols.
`O=C(Cn1nc(-c2nnn[nH]2)cc1C(=O)N[C@H]1CCCC[C@@H]1OCc1ccccc1)N[C@H]1CCCC[C@@H]1OCc1ccccc1` (stereo in doubt) [Compound 18, 2-[(2-benzyloxy-cyclohexylcarbamoyl)-methyl]-5-(1H-tetrazol-5-yl)-2H-pyrazole-3-carboxylic acid (2-benzyloxy-cyclohexyl)-amide] displayed an IC50 of 0.05 to 0.1 µM. Regarding `COc1ccc(CNC(=O)c2cc(C(=O)N[C@H]3CCCC[C@@H]3OCc3ccccc3)n(CC(=O)N[C@H]3CCCC[C@@H]3OCc3ccccc3)n2)c(OC)c1` [Compound 28], the IC50 was in the range of 0.05 to 0.1 µM.

In turn, `O=C(Cn1nc(C(=O)O)cc1C(=O)N[C@H]1CCCC[C@@H]1OCc1ccccc1)NC1CCCC[C@@H]1N1CCOCC1` (some centres unmarked) [Compound 211] displayed an IC50 of more than 1 µM. Regarding `CCOC(=O)c1cc(C(=O)N[C@H]2CCCC[C@@H]2OCc2ccccc2)n(CC(=O)Nc2ncccc2Oc2ccccc2)n1` [Compound 200], the IC50 was more than 1 µM. The same measure, in the same setting: as for `CN(C)C(=O)c1cc(C(=O)N[C@H]2CCCC[C@@H]2OCc2ccccc2)n(CC(=O)NC2CCCC[C@@H]2OCc2ccccc2)n1` (some centres unmarked) [Compound 197], the figure is more than 1 µM.

The term IC50 denotes the concentration that inhibits the measured activity by half.
